Columns and labels:
[1] = target: T1, Recombinant STAT6 protein (STAT6(W123-T658)) (Homo sapiens, UniProt P42226); experiment: STAT6 Fluorescence Polarization (FP) Assay; type: binding; conditions: STAT6(W123-T658) 250 nM, probe 5-FAM-ApYKPFQDLI-NH2 2 nM, 45-minute incubation
T1 construct: Recombinant STAT6 protein (STAT6(W123-T658))
T1 sequence (P42226 123-658): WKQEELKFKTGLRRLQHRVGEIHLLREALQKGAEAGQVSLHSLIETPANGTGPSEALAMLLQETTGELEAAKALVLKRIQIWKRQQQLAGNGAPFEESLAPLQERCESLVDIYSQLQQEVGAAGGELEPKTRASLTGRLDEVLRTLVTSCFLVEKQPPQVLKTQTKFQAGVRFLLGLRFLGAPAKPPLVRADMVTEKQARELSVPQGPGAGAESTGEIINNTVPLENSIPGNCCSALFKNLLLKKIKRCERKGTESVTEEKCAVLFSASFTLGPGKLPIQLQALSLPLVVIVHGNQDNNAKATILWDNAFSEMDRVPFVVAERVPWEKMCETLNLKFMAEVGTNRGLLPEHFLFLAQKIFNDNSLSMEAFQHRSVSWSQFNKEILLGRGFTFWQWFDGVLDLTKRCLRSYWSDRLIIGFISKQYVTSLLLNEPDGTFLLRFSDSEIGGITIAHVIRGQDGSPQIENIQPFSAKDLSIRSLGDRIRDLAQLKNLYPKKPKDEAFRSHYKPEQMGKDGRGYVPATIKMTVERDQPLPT
Method in brief: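 Displacement of a fluorescent phosphotyrosine peptide (5-FAM-ApYKPFQDLI-NH2, 2 nM) from STAT6(W123-T658) (250 nM), 1% DMSO, pH 7.4 HEPES buffer. After 45 min at room temperature, polarization (mP) was plotted versus log compound concentration and fitted by nonlinear regression to give IC50.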

[2] = target: T2, Recombinant STAT3 protein (STAT3(G127-I722)) (Homo sapiens, UniProt P40763); experiment: STAT3 Fluorescence Polarization (FP) Assay; type: binding; conditions: STAT3(G127-I722) 25 nM, probe 5-FAM-GpYLPQTV-NH2 2 nM, 45-minute incubation
T2 construct: Recombinant STAT3 protein (STAT3(G127-I722))
Method in brief: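 STAT3(G127-I722), 25 nM, was mixed with 2 nM 5-FAM-GpYLPQTV-NH2 probe in HEPES pH 7.4 buffer with 1% DMSO and serially diluted compound. FP (mP) was read after 45 min at room temperature. IC50 came from nonlinear regression.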

T2 sequence (P40763 127-722): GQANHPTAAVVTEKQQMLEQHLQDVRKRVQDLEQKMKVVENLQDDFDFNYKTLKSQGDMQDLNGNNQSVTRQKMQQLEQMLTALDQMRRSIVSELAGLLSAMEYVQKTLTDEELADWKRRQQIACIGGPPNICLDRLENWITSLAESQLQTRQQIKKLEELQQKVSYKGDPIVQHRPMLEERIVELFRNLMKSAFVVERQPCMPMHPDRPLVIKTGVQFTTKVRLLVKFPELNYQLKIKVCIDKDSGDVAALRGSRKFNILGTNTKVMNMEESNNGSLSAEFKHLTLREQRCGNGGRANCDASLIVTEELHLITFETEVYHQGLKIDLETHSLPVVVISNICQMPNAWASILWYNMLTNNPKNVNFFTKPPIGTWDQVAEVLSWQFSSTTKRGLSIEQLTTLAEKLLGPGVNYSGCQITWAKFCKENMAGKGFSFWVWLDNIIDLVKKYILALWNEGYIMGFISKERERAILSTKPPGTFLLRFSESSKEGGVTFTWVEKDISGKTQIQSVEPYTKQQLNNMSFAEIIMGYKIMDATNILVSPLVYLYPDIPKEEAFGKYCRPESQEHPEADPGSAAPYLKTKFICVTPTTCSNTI

COC(=O)N1CC[C@H]2CC[C@@H](C(=O)N3C[C@H](c4ccccc4)[C@@H](C#N)C3)N2C(=O)[C@@H](NC(=O)c2cc3cc(C(F)(F)P(=O)(O)O)ccc3s2)C1 (relative stereo) [Compound 250, ((2-(((5S,8S,10aR)-8-((rel-trans)-3-cyano-4-phenylpyrrolidine-1-carbonyl)-3-(methoxycarbonyl)-6-oxodecahydropyrrolo[1,2-a][1,5]diazocin-5-yl)carbamoyl)benzo[b]thiophen-5-yl)difluoromethyl)phosphonic acid]
IC50 [1]: ≤ 300 nM
IC50 [2]: 100 to 1000 nM

CC(=O)N1CC[C@H]2CC[C@@H](C(=O)N3CC(c4ccn(C)c(=O)c4)CC34CC4)N2C(=O)[C@@H](NC(=O)c2ccc3ccc(CP(=O)(O)O)cc3c2)C1 (stereo partly drawn) [Compound 356, ((7-(((5S,8S,10a R)-3-acetyl-8-(6-(1-methyl-2-oxo-1,2-dihydropyridin-4-yl)-4-azaspiro[2.4]heptane-4-carbonyl)-6-oxodeca-hydropyrrolo [1,2-a][1,5]diazocin-5-yl)carbamoyl)naphthalen-2-yl)methyl) phosphonic acid]
IC50 [1]: 300 to 3000 nM
IC50 [2]: > 10000 nM

CC(=O)N1CC[C@H]2CC[C@@H](C(=O)N(C)c3ccc4nnccc4c3)N2C(=O)[C@@H](NC(=O)c2ccc3ccc(C(F)(F)P(=O)(O)O)nc3c2)C1 [Compound 120, ((7-(((5S,8S,10aR)-3-acetyl-8-(cinnolin-6-yl(methyl)carbamoyl)-6-oxodecahydropyrrolo[1,2-a][1,5]diazocin-5-yl)carbamoyl)quinolin-2-yl)difluoromethyl)phosphonic acid]
IC50 [1]: 3000 to 30000 nM
IC50 [2]: > 10000 nM

CC(=O)N1CC[C@H]2CC[C@@H](C(=O)N3CC(C#N)C4(C3)C(=O)Nc3ccccc34)N2C(=O)[C@@H](NC(=O)c2cc3cc(C(F)(F)P(=O)(O)O)ccc3s2)C1 (stereo partly drawn) [Compound 61, ((2-(((5S,8S,10aR)-3-acetyl-8-(4′-cyano-2-oxospiro[indoline-3,3′-pyrrolidine]-1′-carbonyl)-6-oxodecahydropyrrolo[1,2-a][1,5]diazocin-5-yl)carbamoyl)benzo[b]thiophen-5-yl)difluoromethyl)phosphonic acid]
IC50 [1]: 300 to 3000 nM
IC50 [2]: 100 to 1000 nM

CCN1CC[C@H]2CC[C@@H](C(=O)N3C[C@@H](C#N)[C@H](c4ccccc4)C3)N2C(=O)[C@@H](NC(=O)c2cc3cc([C@H](F)P(=O)(O)O)ccc3s2)C1 (single isomer, unassigned) [Compound 232, ((R or S)-(2-(((5S,8S,10aR)-8-((3S,4R or 3R,4R)-3-cyano-4-phenylpyrrolidine-1-carbonyl)-3-ethyl-6-oxodecahydropyrrolo[1,2-a][1,5]diazocin-5-yl)carbamoyl)benzo[b]thiophen-5-yl)fluoromethyl)phosphonic acid]
IC50 [1]: ≤ 300 nM
IC50 [2]: 100 to 1000 nM

CNC(=O)[C@@H]1CC[C@@H]2CCN(C(=O)c3n[nH]c4ccc(C)cc34)C[C@H](NC(=O)c3ccc4ccc(C(F)(F)P(=O)(O)O)cc4c3)C(=O)N21 [Compound 237, (difluoro(7-(((5S,8S,10aR)-3-(5-methyl-1H-indazole-3-carbonyl)-8-(methylcarbamoyl)-6-oxodecahydropyrrolo[1,2-a][1,5]diazocin-5-yl)carbamoyl)naphthalen-2-yl)methyl)phosphonic acid]
IC50 [1]: ≤ 300 nM
IC50 [2]: 100 to 1000 nM

C[C@@H](CC(=O)N1CC[C@H]2CC[C@@H](C(=O)N3CCCC3)N2C(=O)[C@@H](NC(=O)c2cc3cc(C(F)(F)P(=O)(O)O)ccc3s2)C1)c1ccccc1 [Compound 261, (difluoro(2-(((5S,8S,10aR)-6-oxo-3-((S)-3-phenylbutanoyl)-8-(pyrrolidine-1-carbonyl)decahydropyrrolo[1,2-a][1,5]diazocin-5-yl)carbamoyl)benzo[b]thiophen-5-yl)methyl)phosphonic acid]
IC50 [1]: 300 to 3000 nM
IC50 [2]: 100 to 1000 nM

CC(=O)N1CC[C@H]2CC[C@@H](C(=O)N3CC(c4cc[nH]c(=O)c4)CC34CC4)N2C(=O)[C@@H](NC(=O)c2ccc3ccc(C(F)(F)P(=O)(O)O)cc3c2)C1 (stereo partly drawn) [Compound 37, ((7-(((5S,8S,10aR)-3-acetyl-6-oxo-8-(6-(2-oxo-1,2-dihydropyridin-4-yl)-4-azaspiro[2.4]heptane-4-carbonyl)decahydropyrrolo[1,2-a][1,5]diazocin-5-yl)carbamoyl)naphthalen-2-yl)difluoromethyl)phosphonic acid]
IC50 [1]: ≤ 300 nM
IC50 [2]: > 10000 nM

Cc1ccc2onc(C(=O)N3CC[C@H]4CC[C@@H](C(=O)N5CCOCC5)N4C(=O)[C@@H](NC(=O)c4ccc5ccc(CP(=O)(O)O)nc5c4)C3)c2c1 [Compound 396, ((7-(((5S,8S,10aR)-3-(5-methylbenzo[d]isoxazole-3-carbonyl)-8-(morpholine-4-carbonyl)-6-oxodecahydropyrrolo [1,2-a][1,5]diazocin-5-yl)carbamoyl)quinolin-2-yl)methyl)phosphonic acid]
IC50 [1]: 3000 to 30000 nM
IC50 [2]: > 10000 nM

CC(=O)N1CC[C@H]2CC[C@@H](C(=O)Nc3ccc(-c4ccccc4)cc3Cc3nccs3)N2C(=O)[C@@H](NC(=O)c2cc3cc(C(F)(F)P(=O)(O)O)ccc3s2)C1 [Compound 196, ((2-(((5S,8S,10aR)-3-acetyl-6-oxo-8-((3-(thiazol-2-ylmethyl)-[1,1′-biphenyl]-4-yl)carbamoyl)decahydropyrrolo[1,2-a][1,5]diazocin-5-yl)carbamoyl)benzo[b]thiophen-5-yl)difluoromethyl)phosphonic acid]
IC50 [1]: 300 to 3000 nM
IC50 [2]: 100 to 1000 nM

O=C(N[C@H]1CN(C(=O)OCc2ccccc2)CC[C@H]2CC[C@@H](C(=O)Nc3ccc(-c4ccccc4)cc3)N2C1=O)c1cc2cc(C(F)(F)P(=O)(O)O)ccc2s1 [Compound 252, ((2-(((5S,8S,10aR)-8-([1,1′-biphenyl]-4-ylcarbamoyl)-3-((benzyloxy)carbonyl)-6-oxodecahydropyrrolo[1,2-a][1,5]diazocin-5-yl)carbamoyl)benzo[b]thiophen-5-yl)difluoromethyl)phosphonic acid]
IC50 [1]: 300 to 3000 nM
IC50 [2]: 1000 to 10000 nM

CC(=O)N1CC[C@H]2CC[C@@H](C(=O)N3CCC4C3CN4c3ccccc3)N2C(=O)[C@@H](NC(=O)c2cc3cc(C(F)(F)P(=O)(O)O)ccc3s2)C1 (stereo partly drawn) [Compound 11, ((2-(((5S,8S,10aR)-3-acetyl-6-oxo-8-(6-phenyl-2,6-diazabicyclo[3.2.0]heptane-2-carbonyl)decahydropyrrolo[1,2-a][1,5]diazocin-5-yl)carbamoyl)benzo[b]thiophen-5-yl)difluoromethyl)phosphonic acid]
IC50 [1]: 300 to 3000 nM
IC50 [2]: 100 to 1000 nM

CC(=O)N1CC[C@H]2CC[C@@H](C(=O)N3CC4CCS(=O)(=O)CC4C3)N2C(=O)[C@@H](NC(=O)c2cc3cc(C(F)(F)P(=O)(O)O)ccc3s2)C1 (stereo partly drawn) [Compound 80, ((2-(((5S,8S,10aR)-3-acetyl-8-(5,5-dioxidooctahydrothiopyrano[3,4-c]pyrrole-2-carbonyl)-6-oxodecahydropyrrolo[1,2-a][1,5]diazocin-5-yl)carbamoyl)benzo[b]thiophen-5-yl)difluoromethyl)phosphonic acid]
IC50 [1]: 300 to 3000 nM
IC50 [2]: 100 to 1000 nM

Cc1ccc2onc(C(=O)N3CC[C@H]4CC[C@@H](C(=O)N5C[C@@H](c6cc[nH]c(=O)c6)CC56CC6)N4C(=O)[C@@H](NC(=O)c4ccc5ccc(C(F)(F)P(=O)(O)O)cc5c4)C3)c2c1 [Compound 385, (difluoro(7-(((5S,8S, 10aR)-3-(5-methyl-benzo[d]isoxazole-3-carbonyl)-6-oxo-8-((R)-6-(2-oxo-1,2-dihydro-pyridin-4-yl)-4-azaspiro [2.4]heptane-4-carbonyl)decahydro-pyrrolo[1,2-a][1,5]diazocin-5-yl)carbamoyl)naphthalen-2-yl)methyl) phosphonic acid]
IC50 [1]: ≤ 300 nM
IC50 [2]: 1000 to 10000 nM

O=C(N[C@H]1CN(CC(F)F)CC[C@H]2CC[C@@H](C(=O)N3CC(C(=O)N4CCOCC4)C3)N2C1=O)c1cc2cc(C(F)(F)P(=O)(O)O)ccc2s1 [Compound 263, ((2-(((5S,8S,10aR)-3-(2,2-difluoroethyl)-8-(3-(morpholine-4-carbonyl)azetidine-1-carbonyl)-6-oxodecahydropyrrolo[1,2-a][1,5]diazocin-5-yl)carbamoyl)benzo[b]thiophen-5-yl)difluoromethyl)phosphonic acid]
IC50 [1]: 3000 to 30000 nM
IC50 [2]: ≤ 100 nM

CC(=O)N1CC(N(C)C(=O)[C@@H]2CC[C@@H]3CCN(C(C)=O)C[C@H](NC(=O)c4cc5cc(C(F)(F)P(=O)(O)O)ccc5s4)C(=O)N32)C1 [Compound 171, ((2-(((5S,8S,10aR)-3-acetyl-8-((1-acetylazetidin-3-yl)(methyl)carbamoyl)-6-oxodecahydropyrrolo[1,2-a][1,5]diazocin-5-yl)carbamoyl)benzo[b]thiophen-5-yl)difluoromethyl)phosphonic acid]
IC50 [1]: 300 to 3000 nM
IC50 [2]: 1000 to 10000 nM
